Results published in patent US7514257B2, “Zinc finger transcription factor differentiation proteins” (ToolGen, Inc., priority 2001, dated 2009).

How the values were obtained:
human insulin gene [1] = experiment: Insulin gene expression in transiently transfected HeLa cells; format: cell-based
Excerpt: To test whether 08_D04-p65 can induce insulin gene expression in different human cell lines, we transiently transfected a nucleic acid encoding 08_D04-p65 into HeLa cells. Expression of the nucleic acid in HeLa cells caused a 80 fold increase in expression of the insulin gene.
Nucleic acids encoding certain zinc finger proteins were also expressed in HeLa cells. pLFD-p65 containing 08-D04 ZFP was transiently transfected into HeLa cells using LIPOFECTAMINE™ 2000 (Invitrogen).

human insulin gene [2] = experiment: Insulin gene expression in stably transfected 293 cells (DNA microarray); format: cell-based; conditions: stably transfected human 293 cells
Excerpt: We stably transfected nucleic acids encoding chimeric zinc finger proteins in human 293 cell lines, and analyzed transformed cells using DNA microarray experiments to characterize genes regulated by each chimeric zinc finger protein (see FIGS. 4, 5, and 9). We have identified a chimeric zinc finger protein (08_D04-p65) that increases the expression of human insulin gene more than 60 fold.
Nucleic acids encoding zinc finger proteins were stably introduced into FlpTRex-293 cell lines (Invitrogen) essentially as described in the manufacturer's protocols. Briefly, the HindIII-XhoI fragment from the pLFD-p65 or pLFD-Kid vectors was subcloned into pcDNA5/FRT/TO (Invitrogen Calif.). This fragment includes a sequence encoding the zinc finger proteins. Resulting plasmids were cotransfected into FlpTRex-293 cells with pOG44 (Invitrogen). Stable integrants that express ZFP-TFs upon doxycycline induction were obtained.
DNA microarrays containing 7458 human EST clones were obtained from Genomictree (Korea). FlpTRex-293 cells stably expressing ZFP-TFs were grown with (+Dox) or without Dox) 1 μg/ml Doxycycline for 48 hours. Total RNA was prepared from each sample. RNA from the −Dox sample was used as a reference (Cy3), and +Dox as the experimental sample (Cy5). […] Spots with sum of median less than 500 were colored red and not analyzed.

**Q.** Which results are given for “08_D04-p65: ZFP RSHR-RDHT-VSSR with p65 activation domain (SEQ ID NO:6)”?
**A.** increase in expression of the insulin gene (human insulin gene [1]): 80 fold; increase in expression of human insulin gene (human insulin gene [2]): more than 60 fold
